Measured values reported in patent EP0497314A1, “Use of azapirones in attention deficit hyperactivity disorder” (Bristol-Myers Squibb Company, priority 1991, dated 1992).
Marks after values point to notes of the source that are not given here.

Assays:
[1] = test system: fronto-occipital cortex of the cat; test: Quantitative EEG, fronto-occipital cat cortex, subcutaneous administration; format: in vivo, cats; settings: in vivo
From the text: This unique combination of activity may render buspirone useful in the treatment of childhood hyperkinesis which has been reported to respond to both selected phenothiazine and stimulant drugs. • (b) Adult mongrel female cats weighing 2.5-4.0 kg were implanted with EEG recording electrodes. Recording sites were as follows: fronto-occipital cortex, basal amygdala and ventral hippocampus.
Animals were individually held in canvas feline restraining bags for EEG recording. The EEG of each brain area was recorded on a separate channel. The instrumentation filtered each channel of EEG and analog data into five distinct frequency bands: Δ=0.5-3.5 Hz, ϑ=3.5-7.0 Hz, α=7-13 Hz, β=13-25 Hz and γ=25-40 Hz. The EEG analyzer then integrated the filtered waveforms and sent pulses to an associated computer at a rate proportional to the electrical energy of each band. Data collecting procedures were essentially the same as reported in Example 1. However, groups of six animals each were used and all drugs were administered subcutaneously in saline solution as their respective salts, but all dosages were calculated as the free base. Recording was started 30 minutes after injection to insure adequate drug absorption for peak activity.
Drug-induced EEG changes were determined by comparing the post-treatment data to the pre-treatment control in the same animal. Statistical analysis was performed on change from control, in instrument counts, using multiple Student-t-paired-comparison test with P≦0.05 (Table 2). However, for clarity data are also presented as percent change from control (Figures 3, 4 and 5).
The data in Table 2 are drug-induced changes resulting from the minimum and higher doses of each compound required to elicit the EEG profile characteristic of that particular drug.

rabbit cortex = test: Quantitative EEG, rabbit cortex, intravenous administration; format: in vivo, rabbits; settings: rabbit, in vivo
Procedure: At least 2 weeks were allowed for recovery before beginning experimentation.
Groups of four animals each were individually restrained and connected to an EEG amplifier and frequency analyzer. The EEG of each animal was recorded on a separate channel. The instrumentation filtered each channel of EEG analog data into five distinct frequency bands: Δ=0.5-3.5 Hz, ϑ=3.5-7.0 Hz, α=7-13 Hz, β=13-25 Hz and γ=25-40 Hz. The EEG analyzer then integrated the filtered waveforms and sent pulses to an associated computer at a rate proportional to the electrical energy of each band. Thus, one computer print-out provided a cortical EEG profile for the entire group of four rabbits.
Data from a one-hour recording period were collected in four 15-minute periods, which provided additional information concerning both onset and time of peak effect of drug activity. However, in this report only the mean activity of the four data collection periods was considered since onset of drug activity was immediate and duration of action was at least one hour for all drugs studied. Drug-induced EEG changes were determined by comparing the post-treatment print-out to the pretreatment control in the same animal and statistical analysis was performed on change from control, in counts, using multiple Student-t paired-comparison tests with p≦0.05 (Table 1). However, for clarity data are also presented as percent change from control (Figures 1 and 2).
All drugs were administered intravenously in saline solution as their respective salts and all dosage calculations were based on the free base. Recording was started immediately after injection and animals were not used more often than once per week. Initial doses were reduced geometrically until a no-effect dose was determined for each drug. However, only the "no-effect" data and the data generated from the next higher dose are presented in this report since the shape of the EEG profile is not dose-related, as opposed to the magnitude of the response which is dose-related.

C[C@H](N)Cc1ccccc1 [Dextroamphetamine 1/2H2SO4, dextroamphetamine] was tested, and the “the minimum dose required to produce the EEG profile characteristic of that particular drug” value [1] was 0.125‡ mg/kg, s.c, the the no-effect dose [1] was 0.0625† mg/kg, s.c and the “relative potency by comparing minimal doses required to elicit EEG profiles” value ([1]; sc) was “approximately twice as potent as buspirone and methylphenidate”. For the same molecule, the “group percent change in electrical energy from pre-drug control, Δ band” value (shortened to “group percent change … Δ band”) ([1]; sc, 0.0625 mg/kg) was -18 ± 6 (-8) percent, the “group percent change in electrical energy from pre-drug control, α band” value (“group percent change … α band” for short) ([1]; sc, 0.0625 mg/kg) was -12 ± 8 (-8) percent and the “group percent change in electrical energy from pre-drug control, β band” value (“group percent change … β band” for short) ([1]; sc, 0.0625 mg/kg) was “+1 ± 5 (+1) percent”. For the same molecule, the “group percent change in electrical energy from pre-drug control, γ band” value (“group percent change … γ band” for short) ([1]; sc, 0.0625 mg/kg) was “+2 ± 3 (+2) percent”, the “group percent change in electrical energy from pre-drug control, θ band” value (“group percent change … θ band” for short) ([1]; sc, 0.0625 mg/kg) was -15 ± 7 (-10) percent and the “mean change ± S.E. in electrical energy from pre-drug control, Δ band” value (“mean change ± S.E. in electrical energy … Δ band” for short) ([1]; sc, 0.0625 mg/kg) was -18 ± 6 (-8) instrument counts. The “mean change ± S.E. in electrical energy from pre-drug control, α band” value (“mean change ± S.E. in electrical energy … α band” for short) ([1]; sc, 0.0625 mg/kg) was -12 ± 8 (-8) instrument counts, the “mean change ± S.E. in electrical energy from pre-drug control, β band” value (shortened to “mean change ± S.E. in electrical energy … β band”) ([1]; sc, 0.0625 mg/kg) was “+1 ± 5 (+1) instrument counts” and the “mean change ± S.E. in electrical energy from pre-drug control, γ band” value (from here on “mean change ± S.E. in electrical energy … γ band”) ([1]; sc, 0.0625 mg/kg) was “+2 ± 3 (+2) instrument counts”. For the same molecule, the “mean change ± S.E. in electrical energy from pre-drug control, θ band” value (“mean change ± S.E. in electrical energy … θ band” for short) ([1]; sc, 0.0625 mg/kg) was -15 ± 7 (-10) instrument counts, the “group percent change … Δ band” value ([1]; sc, 0.125 mg/kg) was -85 ± 21 (-35) percent and the “group percent change … α band” value ([1]; sc, 0.125 mg/kg) was -29 ± 9 (-26) percent. For the same molecule, the “group percent change … β band” value ([1]; sc, 0.125 mg/kg) was -3 ± 4 (-3) percent, the “group percent change … γ band” value ([1]; sc, 0.125 mg/kg) was “+8 ± 2 (+12) percent” and the “group percent change … θ band” value ([1]; sc, 0.125 mg/kg) was -44 ± 8 (-33) percent. The “mean change ± S.E. in electrical energy … Δ band” value ([1]; sc, 0.125 mg/kg) was -85 ± 21 (-35) instrument counts, the “mean change ± S.E. in electrical energy … α band” value ([1]; sc, 0.125 mg/kg) was -29 ± 9 (-26) instrument counts and the “mean change ± S.E. in electrical energy … β band” value ([1]; sc, 0.125 mg/kg) was -3 ± 4 (-3) instrument counts. For the same molecule, the “mean change ± S.E. in electrical energy … γ band” value ([1]; sc, 0.125 mg/kg) was “+8 ± 2 (+12) instrument counts”, the “mean change ± S.E. in electrical energy … θ band” value ([1]; sc, 0.125 mg/kg) was -44 ± 8 (-33) instrument counts and the “group percent change … Δ band” value ([1]; sc, 0.5 mg/kg) was -78 ± 32 (-33) percent. For the same molecule, the “group percent change … α band” value ([1]; sc, 0.5 mg/kg) was -71 ± 11 (-51) percent, the “group percent change … β band” value ([1]; sc, 0.5 mg/kg) was -18 ± 9 (-15) percent and the “group percent change … γ band” value ([1]; sc, 0.5 mg/kg) was “+18 ± 4 (+25) percent”. For the same molecule, the “group percent change … θ band” value ([1]; sc, 0.5 mg/kg) was -76 ± 13 (-51) percent, the “mean change ± S.E. in electrical energy … Δ band” value ([1]; sc, 0.5 mg/kg) was -78 ± 32 (-33) instrument counts and the “mean change ± S.E. in electrical energy … α band” value ([1]; sc, 0.5 mg/kg) was -71 ± 11 (-51) instrument counts. The “mean change ± S.E. in electrical energy … β band” value ([1]; sc, 0.5 mg/kg) was -18 ± 9 (-15) instrument counts, the “mean change ± S.E. in electrical energy … γ band” value ([1]; sc, 0.5 mg/kg) was “+18 ± 4 (+25) instrument counts” and the “mean change ± S.E. in electrical energy … θ band” value ([1]; sc, 0.5 mg/kg) was -76 ± 13 (-51) instrument counts. The “group percent change … Δ band” value ([1]; sc, 4 mg/kg) was “+64 ± 27 (+29) percent”, the “group percent change … α band” value ([1]; sc, 4 mg/kg) was -44 ± 13 (-35) percent and the “group percent change … β band” value ([1]; sc, 4 mg/kg) was -6 ± 9 (-5) percent. For the same molecule, the “group percent change … γ band” value ([1]; sc, 4 mg/kg) was “+50 ± 8 (+63) percent”, the “group percent change … θ band” value ([1]; sc, 4 mg/kg) was -34 ± 13 (-24) percent and the “mean change ± S.E. in electrical energy … Δ band” value ([1]; sc, 4 mg/kg) was “+64 ± 27 (+29) instrument counts”. For the same molecule, the “mean change ± S.E. in electrical energy … α band” value ([1]; sc, 4 mg/kg) was -44 ± 13 (-35) instrument counts, the “mean change ± S.E. in electrical energy … β band” value ([1]; sc, 4 mg/kg) was -6 ± 9 (-5) instrument counts and the “mean change ± S.E. in electrical energy … γ band” value ([1]; sc, 4 mg/kg) was “+50 ± 8 (+63) instrument counts”. For the same molecule, the “mean change ± S.E. in electrical energy … θ band” value ([1]; sc, 4 mg/kg) was -34 ± 13 (-24) instrument counts, the “the minimum dose required to produce the EEG profile characteristic of that particular drug” value (rabbit cortex) was 0.25‡ mg/kg, i.v and the the no-effect dose (rabbit cortex) was 0.125† mg/kg, i.v. The “relative potency by comparing minimal doses required to elicit EEG profiles” value (rabbit cortex; iv) was “approximately twice as potent as buspirone”, the “group percent change … Δ band” value (rabbit cortex; iv, 0.125 mg/kg) was “+4 ± 17 (+2) percent” and the “group percent change … α band” value (rabbit cortex; iv, 0.125 mg/kg) was 0 ± 9 (0) percent. For the same molecule, the “group percent change … β band” value (rabbit cortex; iv, 0.125 mg/kg) was “+2 ± 6 (+1) percent”, the “group percent change … γ band” value (rabbit cortex; iv, 0.125 mg/kg) was “+1 ± 1 (+1) percent” and the “group percent change … θ band” value (rabbit cortex; iv, 0.125 mg/kg) was -9 ± 6 (-5) percent. For the same molecule, the “mean change ± S.E. in electrical energy … Δ band” value (rabbit cortex; iv, 0.125 mg/kg) was “+4 ± 17 (+2) instrument counts”, the “mean change ± S.E. in electrical energy … α band” value (rabbit cortex; iv, 0.125 mg/kg) was 0 ± 9 (0) instrument counts and the “mean change ± S.E. in electrical energy … β band” value (rabbit cortex; iv, 0.125 mg/kg) was “+2 ± 6 (+1) instrument counts”. The “mean change ± S.E. in electrical energy … γ band” value (rabbit cortex; iv, 0.125 mg/kg) was “+1 ± 1 (+1) instrument counts”, the “mean change ± S.E. in electrical energy … θ band” value (rabbit cortex; iv, 0.125 mg/kg) was -9 ± 6 (-5) instrument counts and the “group percent change … α band” value (rabbit cortex; iv, 0.25 mg/kg) was “+27 ± 9 (-22) percent”. For the same molecule, the “group percent change … β band” value (rabbit cortex; iv, 0.25 mg/kg) was -21 ± 6 (-20) percent, the “group percent change … γ band” value (rabbit cortex; iv, 0.25 mg/kg) was -4 ± 1 (-5) percent and the “group percent change … θ band” value (rabbit cortex; iv, 0.25 mg/kg) was -35 ± 9 (-25) percent. For the same molecule, the “mean change ± S.E. in electrical energy … Δ band” value (rabbit cortex; iv, 0.25 mg/kg) was -64 ± 19 (-33) instrument counts, the “mean change ± S.E. in electrical energy … β band” value (rabbit cortex; iv, 0.25 mg/kg) was -21 ± 6 (-20) instrument counts and the “mean change ± S.E. in electrical energy … γ band” value (rabbit cortex; iv, 0.25 mg/kg) was -4 ± 1 (-5) instrument counts. For the same molecule, the “mean change ± S.E. in electrical energy … θ band” value (rabbit cortex; iv, 0.25 mg/kg) was -35 ± 9 (-25) instrument counts.
